Assay results reported in EP4556003A1, “ANTI-OBESITY AND ANTI-DIABETIC ACTIVITY OF BROMINATED DITERPENES FROM RED ALGAE OF THE GENUS LAURENCIA AND APPLICATIONS THEREOF” (priority 2023, dated 2025).

Assays:
[1] = Serum biochemical toxicity markers in high fat diet-fed mice; format: in vivo, C57BL/6 adult male mice; conditions: intraperitoneal 0.25 mg/mouse every 48 h for 35 days; vs control group
Experimental: (§1) All procedures were conducted in compliance with protocols approved by the Animal Care Committee of the University of Crete, School of Medicine (Facility number EL91-BIOexp-06), in conjunction with the Veterinary Department of the Region of Crete, Heraklion, Crete, Greece. C57BL/6 adult male mice were maintained in a 12 h day/night cycle and 21-23 °C conditions. Mice were provided with water and either normal fat diet, or high fat diet (60% energy from fat) ad libitum. All mice were weighed every 48 h.
(§2) Neorogioldiol was first dissolved in 90% carbowaxTM 400, 10% (v/v) absolute ethanol solution and then diluted 1:10 in water for injection. A dose of 0.25 mg neorogioldiol in a total volume of 200 µl was administered intraperitoneally every 48 h in mice in high fat + neorogioldiol group starting from day 1. 4-5 mice were used per group and each experiment was performed twice.
To detect serum levels of alanine transaminase, aspartate transaminase, creatine phosphokinase and lactate dehydrogenase, serum was collected from peripheral blood via cardiac puncture under isoflurane anesthesia. Serum samples were stored at -80 °C. The levels of alanine transaminase, aspartate transaminase, creatine phosphokinase and lactate dehydrogenase were measured by standard enzymatic procedures using an automated biochemical analyzer AU5800 (Beckman).

[2] = test system: 3T3-L1 cells; assay: MTT cell viability / proliferation assay; format: cell-based, Mouse
Experimental: The cell viability was evaluated using the MTT assay. 3T3-L1 cells were seeded at a density of 1×10^3 in 96-well plates and incubated for 24h. Compounds 1 and 2 were added in the wells at various concentrations and then incubated at 37 °C. Cells were treated with compound 1 at concentrations of 62.5, 46.875, 31.25, 15.625, 7.81 and 3.9 µM. Cells were treated with compound 2 at concentrations of 62.5, 25.0, 12.5, 6.25 and 3.125 µM. After 24, 48, and 72 h of treatment, MTT solution was added in the wells at a final concentration of 0.5 mg/mL and incubated for 4 h. Cell culture media with MTT was removed and the formazan crystals were dissolved in 100 µl/well isopropanol/HCl (0.4%) and the absorbance was measured at 600 nm using the Infinite® 200 PRO microplate plate reader (Tecan, Zurich, Switzerland).

[3] = test system: abdominal fat; assay: Quantitative PCR in fat fraction and stromal vascular fraction of abdominal fat; format: in vivo, C57BL/6 adult male mice
Experimental: Adipocytes and preadipocytes were harvested using the TRI Reagent®. RNA isolation was carried out according to the manufacturer's instructions. The purified RNA was quantified using the Nanodrop micro-volume spectrophotometer and 500 ng of each sample were used as a template for reverse transcription. cDNA synthesis was performed using the PrimeScriptTM RT reagent Kit (TaKaRa, RR037A) according to manufacturer's instructions. The cDNA produced by the above described procedure was diluted and used as a template for two-step quantitative PCR in a StepOnePlus™ Real-Time PCR System (Applied Biosystems™, 4376600) for a maximum of 40 cycles, as follows: start step 95 °C for 3 min, repeat steps: 95 °C for 15 s and 60 °C for 30 s. Amplification was performed using KAPA SYBR® FAST Universal qPCR kit (Kapa Biosystems, KK4618) according to manufacturer's instructions. Relative quantitative analysis was accomplished calculating fold-changes of gene expression as 2-(ΔΔCt), where ΔCt is (Ct (gene of interest) - Ct (housekeeping gene)). Ppib was used as internal control gene in 3T3L1 cells and in the fat fraction of mice abdominal fat, Rps9 was used as internal control gene in the stromal vascular fraction of mice abdominal fat and Actb was used as internal control gene in liver samples. Table 1. List of primers used for quantitative real-time PCR analysis.
as §1, §2
Abdominal fat lobes were weighed, washed in PBS, minced and dissolved with collagenase. They were incubated in 1.5mg/ml collagenase in 1% PBS-BSA, for 30 min at 37 °C. Next, homogenate was centrifuged at 800 rpm for 5 min at room temperature. The upper fatty phase, which contains the adipocytes, was collected and resuspended in TRI Reagent® and RNA isolation was carried out according to the manufacturer's instructions. The cell pellet, which is the stromal vascular fraction, was washed once with PBS and resuspended in TRI Reagent® for RNA isolation.

[4] = test system: 3T3-L1 adipocytes; assay: Oil red o staining of intracellular lipid accumulation; format: cell-based, Mouse
Experimental: Mouse 3T3-L1 preadipocytes were maintained in proliferation medium containing DMEM supplemented with 10% (v/v) heat inactivated NBCS and 1% (v/v) penicillin-streptomycin at 37 °C with 5% CO2, humidified atmosphere. Cells were seeded in T-75 flasks at a density of 25×10^4 cells/flask. Cultures never became completely confluent according to the manufacturer's instructions. They were passaged using trypsin-EDTA solution once they reached 70-80% confluency. For differentiation, 3T3-L1 cells were seeded and after 24 h (day 1), cell differentiation was induced by changing the medium to high glucose DMEM containing 10% (v/v) heat inactivated FBS, 1% penicillin-streptomycin, 10 µg/mL insulin, 0.25 µM Dexamethasone (GAP), 0.5 mM IBMX (=differentiation medium I). On day 3, the medium was changed to high glucose DMEM containing 10% FBS, 1% penicillin- streptomycin, and 10 µg/mL insulin (=differentiation medium II). Thereafter, medium was changed every other day switching between differentiation medium I and differentiation medium II until day 12 or 23, when adipocytes were harvested. Control group preadipocytes were seeded at a higher density and harvested after two days. Test compounds were administered either at the initiation of differentiation, or after 15 days of differentiation and with every medium change. To determine the effect on preadipocyte differentiation, cells were seeded and after 24 h they were treated with neorogioldiol. Neorogioldiol was maintained in the culture medium throughout cell differentiation period. To determine the effect of neorogioldiol on mature adipocytes, cells were seeded and induced to differentiate for 14 days, then on day 15 neorogioldiol was added to the differentiation medium for 24 h before cells were harvested. Each compound used was diluted in a 90% carbowax™ 400, 10% (v/v) absolute ethanol solution serving as a control solvent. The final concentration in culture was 0.09% (v/v) carbowax and 0.01% (v/v) ethanol. […]
Oil red o staining was applied to measure lipid accumulation intracellularly. Briefly, after 12 or 23 days of differentiation, the cell culture medium was removed and the 3T3-L1 adipocytes were fixed in 3.7% formaldehyde for 60 min at room temperature. Next, a solution of 0.21% oil red o was filtered using a 0.45 µm filter followed by incubation of the fixed cells for 45 min at room temperature. Excess dye was removed and cells were washed twice with PBS. Fresh PBS was added and the lipid droplets within the differentiated 3T3-L1 cells were visualized and photographed by microscopy. For quantitative analysis, oil red o staining was eluted with 100% isopropanol and the absorbance was measured at 510 nm using the Infinite® 200 PRO microplate plate reader (Tecan, Zurich, Switzerland).

[5] = high fat diet + neorogioldiol vs high fat diet mice
[6] = high fat diet + neorogioldiol vs untreated obese mice

## neorogioldiol
[1]
  alanine transaminase in serum: No difference
  aspartate transaminase in serum: No difference
  creatine phosphokinase in serum: No difference
  lactate dehydrogenase in serum: No difference
[2]; concentration chosen for further analyses
  concentrations that did not exhibit cytotoxicity: 62.5 µM
[2]; three-day incubation (24, 48, 72 h), compound 1: after the first 24 h of treatment
  concentration with cytostatic effects: 62.5 µM
[3]; [5]
  Arg1 expression in the stromal vascular fraction: downregulated
  Il10 expression in the stromal vascular fraction: downregulated
[3]; [6]
  Adipoq expression in the fat fraction of abdominal fat: lower levels
  Lep expression in the fat fraction of abdominal fat: lower levels
[4]; differentiation in presence of serial concentrations 62.5, 31.25, 15.625, 7.81 and 3.9 µM, dose-dependent
  lipid accumulation: reduced lipid accumulation
[4]; differentiation induced in the presence of compound, after 12 days, 1 at 62.5 µM, 2 at 25 µM
  lipid accumulation: significantly reduced lipid accumulation
[4]; mature adipocytes: differentiated 15 days, then 62.5 µM for 8 more days
  lipid accumulation: decreased lipid accumulation
